From paper PMC4965013, “Open Source Drug Discovery with the Malaria Box Compound Collection for Neglected Diseases and Beyond” (PLoS Pathogens, 2016)

Columns and labels:
P. falciparum = experiment: EC50 listed in S2 Table Metabolomics (used to set the concentration tested); assay type: cell-based; conditions: Plasmodium falciparum; EC50 used for Factor_XEC50 in metabolomics; read-out: EC50_nM
[1] = test system: P. falciparum 3D7 trophozoites; experiment: Metabolomic fingerprint profiling LC-MS; assay type: cell-based, Plasmodium falciparum; set-up: UDP-D-glucose / ADP-D-glucose: unit not given here; conditions: for Acetyllysine / N-acetyl-L-ornithine / N-carbamoyl-L-aspartate / NADPH / dAMP / dCMP / dTDP / dTMP / dTTP / dihydroorotate / orotate / DLH / DLS/SDL/SID / PD / PEE / PVNF / 3-phosphoglycerate / ADP-D-glucose / ATP / CDP / D-sedoheptulose-1/7-phosphate / FAD / GMP / NAD+ / NADP+ / Octoluse Bisphosphate / Pyroglutamic acid / UDP-D-glucose / UDP-D-glucuronate / UDP-N-acetyl-glucosamine / UDP / UMP / UTP / a-ketoglutarate / citrate/isocitrate / cytidine / dATP / dGMP/AMP / fumarate / glucose-1/6-phosphate / glycerate / guanine / guanosine / hypoxanthine / indole / inosine / nicotinate / ornithine / phosphoenolpyruvate / pyruvate / ribose-phosphate / sarcosine/alanine / sn-glycerol-3-phosphate / succinate/methylmalonic acid / uridine / xanthosine: S2 Table Metabolomics; for Acetyllysine: metabolite Acetyllysine; for N-acetyl-L-ornithine: metabolite N-acetyl-L-ornithine; for N-carbamoyl-L-aspartate: metabolite N-carbamoyl-L-aspartate; for NADPH: metabolite NADPH; for dAMP: metabolite dAMP; for dCMP: metabolite dCMP; for dTDP: metabolite dTDP; for dTMP: metabolite dTMP; for dTTP: metabolite dTTP; for dihydroorotate: metabolite dihydroorotate; for orotate: metabolite orotate; for DLH: peptide DLH; for DLS/SDL/SID: peptide DLS/SDL/SID; for PD: peptide PD; for PEE: peptide PEE; for PVNF: peptide PVNF; for 3-phosphoglycerate: metabolite 3-phosphoglycerate; for ADP-D-glucose: metabolite ADP-D-glucose; for ATP: metabolite ATP; for CDP: metabolite CDP; for CDP / D-sedoheptulose-1/7-phosphate / GMP / Octoluse Bisphosphate / UDP / UMP / UTP / citrate/isocitrate / dGMP/AMP / fumarate / glucose-1/6-phosphate / glycerate / guanine / guanosine / inosine / pyruvate / sarcosine/alanine / succinate/methylmalonic acid / uridine / xanthosine: change in metabolite level after compound treatment; for D-sedoheptulose-1/7-phosphate: metabolite D-sedoheptulose-1/7-phosphate; for FAD: metabolite FAD; for GMP: metabolite GMP; for NAD+: metabolite NAD+; for NADP+: metabolite NADP+; for Octoluse Bisphosphate: metabolite Octoluse Bisphosphate; for Pyroglutamic acid: metabolite Pyroglutamic acid; for UDP-D-glucose: metabolite UDP-D-glucose; for UDP-D-glucuronate: metabolite UDP-D-glucuronate; for UDP-N-acetyl-glucosamine: metabolite UDP-N-acetyl-glucosamine; for UDP: metabolite UDP; for UMP: metabolite UMP; for UTP: metabolite UTP; for a-ketoglutarate: metabolite a-ketoglutarate; for citrate/isocitrate: metabolite citrate/isocitrate; for cytidine: metabolite cytidine; for dATP: metabolite dATP; for dGMP/AMP: metabolite dGMP/AMP; for fumarate: metabolite fumarate; for glucose-1/6-phosphate: metabolite glucose-1/6-phosphate; for glycerate: metabolite glycerate; for guanine: metabolite guanine; for guanosine: metabolite guanosine; for hypoxanthine: metabolite hypoxanthine; for indole: metabolite indole; for inosine: metabolite inosine; for 2_3-Diphosphoglyceric acid / 4-phosphopantothenate / 6-phospho-D-gluconate / FMN / IMP / Pyrophosphate / Sedoheptoluse bisphosphate / cyclic-AMP / glutathione disulfide / lactate / myo-inositol: metabolite level change after treatment; for nicotinate: metabolite nicotinate; for ornithine: metabolite ornithine; for phosphoenolpyruvate: metabolite phosphoenolpyruvate; for pyruvate: metabolite pyruvate; for ribose-phosphate: metabolite ribose-phosphate; for sarcosine/alanine: metabolite sarcosine/alanine; for sn-glycerol-3-phosphate: metabolite sn-glycerol-3-phosphate; for succinate/methylmalonic acid: metabolite succinate/methylmalonic acid; for uridine: metabolite uridine; for xanthosine: metabolite xanthosine

CC1CN(C(=O)c2sc3ccccc3c2Cl)CC(C)O1 (stereo not drawn) [MMV020492] was tested, and the EC50 (P. falciparum) was 25.5 nM, the Acetyllysine [1] was -0.0147 and the N-acetyl-L-ornithine [1] was -0.05191. For the same compound, the N-carbamoyl-L-aspartate [1] was 0.1461, the NADPH [1] was 1.076 and the dAMP [1] was 0.05557. It also gave a dCMP [1] of 0.1257, a dTDP [1] of 0.2505 and a dTMP [1] of 0.3742. The dTTP [1] was 0.08279, the dihydroorotate [1] was 0.2809 and the orotate [1] was 0.03682. For the same compound, the DLH [1] was 0.1005, the DLS/SDL/SID [1] was 0.08855 and the PD [1] was 0.1297. The PEE [1] was 0.04353, the PVNF [1] was 0.1047 and the 3-phosphoglycerate [1] was 0.09132. It also gave an ADP-D-glucose [1] of 0.03984, an ATP [1] of 0.0738 and a CDP [1] of 0.1835. For the same compound, the D-sedoheptulose-1/7-phosphate [1] was 0.08985, the FAD [1] was 0.03625 and the GMP [1] was 0.3386. For the same compound, the “NAD+” value [1] was 0.04927, the “NADP+” value [1] was 0.004356 and the “Octoluse Bisphosphate” value [1] was 0.06954. It also gave a Pyroglutamic acid [1] of 0.3822, a UDP-D-glucose [1] of 0.04537 and a UDP-D-glucuronate [1] of -0.02953. For the same compound, the UDP-N-acetyl-glucosamine [1] was 0.08846, the UDP [1] was 0.2013 and the UMP [1] was 0.2191. It also gave a UTP [1] of 0.01852, an a-ketoglutarate [1] of 0.02481 and a citrate/isocitrate [1] of -0.02888. It also gave a cytidine [1] of -0.05556, a dATP [1] of -0.009271 and a dGMP/AMP [1] of 0.09845. It also gave a fumarate [1] of 0.08721, a glucose-1/6-phosphate [1] of -0.03526 and a glycerate [1] of 0.2426. For the same compound, the guanine [1] was 0.0471, the guanosine [1] was 0.114 and the hypoxanthine [1] was -0.07881. For the same compound, the indole [1] was 0.1523, the inosine [1] was -0.03708 and the 2_3-Diphosphoglyceric acid [1] was 0.1949. It also gave a 4-phosphopantothenate [1] of 0.1246, a 6-phospho-D-gluconate [1] of 0.07439 and an FMN [1] of 0.2041. It also gave an IMP [1] of -0.02839, a Pyrophosphate [1] of 0.1402 and a Sedoheptoluse bisphosphate [1] of 0.05967. For the same compound, the cyclic-AMP [1] was 0.07392, the glutathione disulfide [1] was 0.1287 and the lactate [1] was 0.06153. For the same compound, the myo-inositol [1] was 0.04445, the nicotinate [1] was 0.03208 and the ornithine [1] was -0.1593. For the same compound, the phosphoenolpyruvate [1] was 0.09247, the pyruvate [1] was -0.02843 and the ribose-phosphate [1] was -0.3604. The sarcosine/alanine [1] was 0.3511, the sn-glycerol-3-phosphate [1] was 0.4063 and the succinate/methylmalonic acid [1] was 0.003908. It also gave a uridine [1] of 0.1407 and a xanthosine [1] of 0.3607.

COc1ccc(C=C2SC(=N)N(c3ccccc3OC)C2=O)cc1 [MMV666691] gave an EC50 (P. falciparum) of 168 nM, an Acetyllysine [1] of -0.06113 and a N-acetyl-L-ornithine [1] of -0.04858. It also gave a N-carbamoyl-L-aspartate [1] of 3.121, an NADPH [1] of 0.04672 and a dAMP [1] of -0.1913. It also gave a dCMP [1] of 0.1375, a dTDP [1] of -0.4485 and a dTMP [1] of -0.268. For the same compound, the dTTP [1] was -0.128, the dihydroorotate [1] was 3.607 and the orotate [1] was -0.9141. It also gave a DLH [1] of 0.157, a DLS/SDL/SID [1] of 0.06441 and a PD [1] of 0.6447. The PEE [1] was 0.2278, the PVNF [1] was 0.06954 and the 3-phosphoglycerate [1] was -0.08972. It also gave an ADP-D-glucose [1] of 0.2678, an ATP [1] of 0.4861 and a CDP [1] of 0.2338. The D-sedoheptulose-1/7-phosphate [1] was 0.4395, the FAD [1] was 0.4218 and the GMP [1] was -0.5619. For the same compound, the “NAD+” value [1] was 0.2782, the “NADP+” value [1] was 0.1223 and the “Octoluse Bisphosphate” value [1] was 0.2088. It also gave a Pyroglutamic acid [1] of -0.1274, a UDP-D-glucose [1] of 0.2576 and a UDP-D-glucuronate [1] of 0.2671. It also gave a UDP-N-acetyl-glucosamine [1] of 0.2054, a UDP [1] of -0.5559 and a UMP [1] of -0.8809. The UTP [1] was -0.652, the a-ketoglutarate [1] was -0.2164 and the citrate/isocitrate [1] was -0.06979. It also gave a cytidine [1] of 0.2052, a dATP [1] of 0.5778 and a dGMP/AMP [1] of -0.07557. For the same compound, the fumarate [1] was 0.7045, the glucose-1/6-phosphate [1] was 0.363 and the glycerate [1] was 0.3396. The guanine [1] was 0.3707, the guanosine [1] was 0.4982 and the hypoxanthine [1] was 0.09969. For the same compound, the indole [1] was 0.002472, the inosine [1] was 0.382 and the 2_3-Diphosphoglyceric acid [1] was 0.1853. It also gave a 4-phosphopantothenate [1] of -0.1622, a 6-phospho-D-gluconate [1] of 0.4512 and an FMN [1] of 0.2558. The IMP [1] was 0.07363, the Pyrophosphate [1] was 0.16 and the Sedoheptoluse bisphosphate [1] was 0.2481. It also gave a cyclic-AMP [1] of 0.2139, a glutathione disulfide [1] of 0.5647 and a lactate [1] of 0.06184. The myo-inositol [1] was 0.08809, the nicotinate [1] was 0.1482 and the ornithine [1] was 0.1318. It also gave a phosphoenolpyruvate [1] of -0.1506, a pyruvate [1] of -0.3002 and a ribose-phosphate [1] of 0.1031. For the same compound, the sarcosine/alanine [1] was 0.4028, the sn-glycerol-3-phosphate [1] was 0.3221 and the succinate/methylmalonic acid [1] was 0.3253. For the same compound, the uridine [1] was -0.3469 and the xanthosine [1] was 0.6937.

With COc1ccc2c(c1)OC(O)(C(F)(F)C(F)(F)F)CC2=O (stereo not drawn) [MMV007839] the EC50 (P. falciparum) was 283 nM, the Acetyllysine [1] was -0.1495 and the N-acetyl-L-ornithine [1] was -0.3633. For the same compound, the N-carbamoyl-L-aspartate [1] was -1.795, the NADPH [1] was -0.4001 and the dAMP [1] was -1.537. For the same compound, the dCMP [1] was -0.8612, the dTDP [1] was -1.865 and the dTMP [1] was -1.855. The dTTP [1] was -0.1915, the dihydroorotate [1] was -1.4167 and the orotate [1] was -2.224. For the same compound, the DLH [1] was -0.6186, the DLS/SDL/SID [1] was -1.11 and the PD [1] was 0.5838. It also gave a PEE [1] of -0.1635, a PVNF [1] of -0.3342 and a 3-phosphoglycerate [1] of 0.9102. The ADP-D-glucose [1] was -0.2, the ATP [1] was -0.07659 and the CDP [1] was -1.957. The D-sedoheptulose-1/7-phosphate [1] was -0.1553, the FAD [1] was -0.4884 and the GMP [1] was -0.7332. The “NAD+” value [1] was -0.1711, the “NADP+” value [1] was -0.2719 and the “Octoluse Bisphosphate” value [1] was 0.7306. For the same compound, the Pyroglutamic acid [1] was 0.1304, the UDP-D-glucose [1] was -0.2042 and the UDP-D-glucuronate [1] was -0.2026. It also gave a UDP-N-acetyl-glucosamine [1] of -0.2915, a UDP [1] of -2.077 and a UMP [1] of -0.8849. The UTP [1] was -0.5295, the a-ketoglutarate [1] was -0.1816 and the citrate/isocitrate [1] was 0.3799. The cytidine [1] was 0.004906, the dATP [1] was -0.1041 and the dGMP/AMP [1] was -1.779. For the same compound, the fumarate [1] was -0.2064, the glucose-1/6-phosphate [1] was -0.5084 and the glycerate [1] was 3.453. The guanine [1] was -0.7539, the guanosine [1] was -0.466 and the hypoxanthine [1] was 0.3062. For the same compound, the indole [1] was 0.0845, the inosine [1] was 0.6443 and the 2_3-Diphosphoglyceric acid [1] was 0.2433. For the same compound, the 4-phosphopantothenate [1] was -0.5485, the 6-phospho-D-gluconate [1] was 0.05032 and the FMN [1] was -0.6664. The IMP [1] was -0.6059, the Pyrophosphate [1] was 0.1105 and the Sedoheptoluse bisphosphate [1] was 0.5834. The cyclic-AMP [1] was -1.0489, the glutathione disulfide [1] was -0.5477 and the lactate [1] was 0.3101. It also gave a myo-inositol [1] of 0.232, a nicotinate [1] of 0.1131 and an ornithine [1] of 0.4692. For the same compound, the phosphoenolpyruvate [1] was 1.103, the pyruvate [1] was 2.0227 and the ribose-phosphate [1] was 0.6152. It also gave a sarcosine/alanine [1] of 0.4418, a sn-glycerol-3-phosphate [1] of 0.2795 and a succinate/methylmalonic acid [1] of -0.36. It also gave a uridine [1] of -0.244 and a xanthosine [1] of -0.1676.
